From patent US6528494B2 (priority 1996, dated 2003)
Where a name gives a salt, the structure may show the parent alone.

Assays:
Assay type in all cases: cell-based
adenosine 2a receptor = adenosine 2a receptor (Homo sapiens, UniProt P29274); test: Agonist activity against adenosine 2a receptor (CHO cells, cAMP/SPAP reporter); settings: CHO cells transfected with human receptor; basal cAMP via SPAP; mean of all the versions tested
Experimental: (§1) (1) Agonist activity against adenosine 2a, adenosine 1 and adenosine 3 receptor subtypes.
(§2) The effect of test compounds was determined by their effects on basal levels of cAMP (A2a) or on forskolin-enhanced cAMP (A1 and A3) as reflected by changes in levels of SPAP.

adenosine 3 receptor = target: T1, adenosine 3 receptor (Homo sapiens, UniProt P0DMS8); test: Agonist activity against adenosine 3 receptor (CHO cells, forskolin-enhanced cAMP/SPAP reporter); settings: CHO cells transfected with human receptor; forskolin-enhanced cAMP via SPAP; mean of all the versions tested
T1 sequence (P0DMS8 1-318): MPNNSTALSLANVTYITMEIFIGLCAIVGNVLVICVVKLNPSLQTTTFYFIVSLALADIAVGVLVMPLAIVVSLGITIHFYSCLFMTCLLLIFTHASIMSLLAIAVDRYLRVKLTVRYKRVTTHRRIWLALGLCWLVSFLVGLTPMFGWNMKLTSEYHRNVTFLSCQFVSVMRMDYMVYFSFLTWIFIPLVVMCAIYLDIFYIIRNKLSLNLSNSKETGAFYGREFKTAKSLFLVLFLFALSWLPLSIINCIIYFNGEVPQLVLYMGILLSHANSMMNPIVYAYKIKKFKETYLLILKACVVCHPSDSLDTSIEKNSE
Experimental: as §1, §2

adenosine 1 receptor = target: T2, adenosine 1 receptor (Homo sapiens, UniProt P30542); test: Agonist activity against adenosine 1 receptor (CHO cells, forskolin-enhanced cAMP/SPAP reporter); settings: CHO cells transfected with human receptor; forskolin-enhanced cAMP via SPAP; mean of all the versions tested
T2 sequence (P30542 1-326): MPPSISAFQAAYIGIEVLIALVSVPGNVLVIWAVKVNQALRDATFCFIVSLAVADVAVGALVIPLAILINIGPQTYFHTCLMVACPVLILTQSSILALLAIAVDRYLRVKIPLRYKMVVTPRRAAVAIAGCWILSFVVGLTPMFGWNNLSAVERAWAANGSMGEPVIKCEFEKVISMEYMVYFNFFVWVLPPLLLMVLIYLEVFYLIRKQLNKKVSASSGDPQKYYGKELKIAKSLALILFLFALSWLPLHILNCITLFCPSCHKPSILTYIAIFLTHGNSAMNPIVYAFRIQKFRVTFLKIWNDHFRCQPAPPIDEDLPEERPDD
Experimental: as §1, §2

Chain of adenosine 2a receptor (P29274 whole entry): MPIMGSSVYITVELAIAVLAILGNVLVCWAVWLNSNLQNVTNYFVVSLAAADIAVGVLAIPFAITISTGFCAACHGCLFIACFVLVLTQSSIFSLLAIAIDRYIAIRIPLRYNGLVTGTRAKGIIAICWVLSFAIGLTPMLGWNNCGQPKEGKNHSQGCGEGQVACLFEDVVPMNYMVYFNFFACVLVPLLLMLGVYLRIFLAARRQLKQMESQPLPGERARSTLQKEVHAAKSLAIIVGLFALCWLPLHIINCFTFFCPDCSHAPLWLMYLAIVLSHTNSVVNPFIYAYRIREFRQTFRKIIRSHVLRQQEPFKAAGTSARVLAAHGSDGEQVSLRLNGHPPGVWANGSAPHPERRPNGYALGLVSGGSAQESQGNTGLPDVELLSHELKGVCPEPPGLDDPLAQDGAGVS

Compound	A2a EC50 as a ratio of that of NECA (adenosine 2a receptor)	A3 EC50 as a ratio of that of NECA (adenosine 3 receptor)	A1 EC50 as a ratio of that of NECA (adenosine 1 receptor)
CCn1nnc([C@H]2O[C@@H](n3cnc4c(N)nc(NCCc5cn(C)cn5)nc43)[C@H](O)[C@@H]2O)n1.O=CO [Example 54, (2R,3R,4S,5R)-2-{6-Amino-2-[2-(1-methyl-1H-imidazol-4-yl)-ethylamino]-purin-9-yl}-5-(2-ethyl-2H-tetrazol-5-yl)-tetrahydro-furan-3,4-diol Formate]	1.16	>175	267.60
CCn1nnc([C@H]2O[C@@H](n3cnc4c(N)nc(NCCNc5ccccn5)nc43)[C@H](O)[C@@H]2O)n1.O=C(O)C(F)(F)F [Example 55, (2R,3R,4S,5R)-2-{6-Amino-2-[2-(pyridin-2-ylamino)-ethylamino)-purin-9-yl}-5-(2-ethyl-2H-tetrazol-5-yl)-tetrahydro-furan-3,4-diol Trifluoroacetate]	5.77	>435	1136.00
CC(C)n1nnc([C@H]2O[C@@H](n3cnc4c(NCCC(C)(C)C)nc(NCCc5cn(C)cn5)nc43)[C@H](O)[C@@H]2O)n1.O=CO [Example 56, (2R,3R,4S,5R)-2-{6-(3,3-Dimethyl-butylamino)-2-[2-(1-methyl-1H-imidazol-4-yl)-ethylamino]-purin-9-yl}-5-(2-isopropyl-2H-tetrazol-5-yl)-tetrahydro-furan-3,4-diol Formate]	4.90	>297	570.90
CC(C)n1nnc([C@H]2O[C@@H](n3cnc4c(NCCc5ccccc5)nc(NCCc5cn(C)cn5)nc43)[C@H](O)[C@@H]2O)n1.O=CO [Example 57, (2R,3S,4R,5R)-2-(2-Isopropyl-2H-tetrazol-5-yl)-5-{2-[2-(1-methyl-1H-imidazol-4-yl)-ethylamino]-6-phenethylamino-purin-9-yl}-tetrahydro-furan-3,4-diol Formate]	2.42	>362	376.10
CC(C)n1nnc([C@H]2O[C@@H](n3cnc4c(NCc5ccccc5)nc(NCCc5cn(C)cn5)nc43)[C@H](O)[C@@H]2O)n1.O=CO [Example 58, (2R,3R,4S,5R)-2-{6-Benzylamino-2-[2-(1-methyl-1H-imidazol-4-yl)-ethylamino]-purin-9-yl}-5-(2-isopropyl-2H-tetrazol-5-yl)-tetrahydro-furan-3,4-diol Formate]	6.07	>515	1119.00
CCC(CC)Nc1nc(NCCc2cn(C)cn2)nc2c1ncn2[C@@H]1O[C@H](c2nnn(C(C)C)n2)[C@@H](O)[C@H]1O.O=CO [Example 59, (2R,3R,4S,5R)-2-{6-(1-Ethyl-propylamino)-2-[2-(1-methyl-1H-imidazol-4-yl)-ethylamino]-purin-9-yl}-5-(2-isopropyl-2H-tetrazol-5-yl)-tetrahydro-furan-3,4-diol Formate]	2.34	>749	92.30
CCn1nnc([C@H]2O[C@@H](n3cnc4c(NCCC(C)(C)C)nc(N[C@@H]5CCC[C@H]5O)nc43)[C@H](O)[C@@H]2O)n1.O=C(O)C(F)(F)F.O=C(O)C(F)(F)F [Example 60]	4.24	>385	69.10
CCn1nnc(C2OC(n3cnc4c(NCc5ccccc5)nc(NC(CO)Cc5ccccc5)nc43)C(O)C2O)n1 [Example 61, (2R,3R,4S,5R)-2-[6-Benzylamino-2-(1S-hydroxymethyl-2-phenyl-ethylamino)-purin-9-yl]-5-(2-ethyl-2H-tetrazol-5-yl)-tetrahydro-furan-3,4-diol Formate]	9.20	>150	323.00
CCC(CC)Nc1nc(NCCN2CCCCC2)nc2c1ncn2C1OC(c2nnn(C(C)C)n2)C(O)C1O.O=CO.O=CO [Example 68, (2R,3R,4S,5R)-2-[6-(1-Ethyl-propylamino)-2-(2-piperidin-1-yl-ethylamino)-purin-9-yl]-5-(2-isopropyl-2H-tetrazol-5-yl)-tetrahydro-furan-3,4-diol bis(Formate)]	3.50	>331	56.20

The remaining lines, values ahead:

A2a EC50 as a ratio of that of NECA (adenosine 2a receptor)	A3 EC50 as a ratio of that of NECA (adenosine 3 receptor)	A1 EC50 as a ratio of that of NECA (adenosine 1 receptor)	Compound
9.90	>736	481.30	CCn1nnc(C2OC(n3cnc4c(NCCC(C)(C)C)nc(NC(CO)Cc5ccccc5)nc43)C(O)C2O)n1 [Example 52, (2R,3R,4S,5R)-2-[6-(3,3-Dimethyl-butylamino)-2-(1S-hydroxymethyl-2-phenyl-ethylamino)-purin-9-yl]-5-(2-ethyl-2H-tetrazol-5-yl)-tetrahydro-furan-3,4-diol Acetate]
4.14	>960	298.30	CCn1nnc([C@H]2O[C@@H](n3cnc4c(N)nc(N[C@H]5CC[C@H](N)CC5)nc43)[C@H](O)[C@@H]2O)n1 [Example 53, (2R,3R,4S,5R)-2-[6-Amino-2-(trans-4-amino-cyclohexylamino)-purin-9-yl]-5-(2-ethyl-2H-tetrazol-5-yl)-tetrahydro-furan-3,4-diol]
2.29	>295	21.10	CCn1nnc(C2OC(n3cnc4c(NC(CO)Cc5ccccc5)nc(NC5CCNC5)nc43)C(O)C2O)n1 [Example 62, (2R,3S,4R,5R)-2-(2-Ethyl-2H-tetrazol-5-yl)-5-[6-(1S-hydroxymethyl-2-phenyl-ethylamino)-2-(pyrrolidin-3R-ylamino)-purin-9-yl]-tetrahydro-furan-3,4-diol bis(Formate)]
5.86	>326	55.60	CC(C)n1nnc([C@H]2O[C@@H](n3cnc4c(N[C@H](CO)Cc5ccccc5)nc(NCCc5ccccn5)nc43)[C@H](O)[C@@H]2O)n1.O=CO [Example 63, (2R,3R,4S,5R)-2-[6-(1S-Hydroxymethyl-2-phenyl-ethylamino)-2-(2-pyridin-2-yl-ethylamino)-purin-9-yl]-5-(2-isopropyl-2H-tetrazol-5-yl)-tetrahydro-furan-3,4-diol Formate]
2.54	>326	21.30	CC(C)n1nnc([C@H]2O[C@@H](n3cnc4c(N[C@H](CO)Cc5ccccc5)nc(N[C@H]5CCNC5)nc43)[C@H](O)[C@@H]2O)n1.O=CO.O=CO [Example 64, (2R,3R,4S,5R)-2-[6-(1S-Hydroxymethyl-2-phenyl-ethylamino)-2-(pyrrolidin-3S-ylamino)-purin-9-yl]-5-(2-isopropyl-2H-tetrazol-5-yl)-tetrahydro-furan-3,4-diol bis(Formate)]
2.46	>158	61.50	CCC(CC)Nc1nc(NC2CCN(Cc3ccccc3)C2)nc2c1ncn2C1OC(c2nnn(CC)n2)C(O)C1O.O=CO.O=CO [Example 65, (2R,3R,4S,5R)-2-[2-(1-Benzyl-pyrrolidin-3-ylamino)-6-(1-ethyl-propylamino)-purin-9-yl]-5-(2-ethyl-2H-tetrazol-5-yl)-tetrahydro-furan-3,4-diol bis(Formate)]
2.96	>326	73.85	CCC(CC)Nc1nc(NC2CCC(N)CC2)nc2c1ncn2C1OC(c2nnn(C(C)C)n2)C(O)C1O.O=CO.O=CO [Example 67, (2R,3R,4S,5R)-2-[2-(trans-4-Amino-cyclohexylamino)-6-(1-ethyl-propylamino)-purin-9-yl]-5-(2-isopropyl-2H-tetrazol-5-yl)-tetrahydro-furan-3,4-diol bis(Formate)]
